In patent publication US20250230165A1, “HETEROCYCLIC COMPOUNDS FOR USE IN THE TREATMENT OF CANCER” (ARTIOS PHARMA LIMITED, priority 2021, published 2025):

Biological target: T1, Human Polθ polymerase domain (aa1820-2590) (Homo sapiens, UniProt O75417)
T1 construct: Human Polθ polymerase domain (aa1820-2590) was expressed in E. coli; made in house; host or cells: E. coli
T1 sequence (O75417 1820-2590): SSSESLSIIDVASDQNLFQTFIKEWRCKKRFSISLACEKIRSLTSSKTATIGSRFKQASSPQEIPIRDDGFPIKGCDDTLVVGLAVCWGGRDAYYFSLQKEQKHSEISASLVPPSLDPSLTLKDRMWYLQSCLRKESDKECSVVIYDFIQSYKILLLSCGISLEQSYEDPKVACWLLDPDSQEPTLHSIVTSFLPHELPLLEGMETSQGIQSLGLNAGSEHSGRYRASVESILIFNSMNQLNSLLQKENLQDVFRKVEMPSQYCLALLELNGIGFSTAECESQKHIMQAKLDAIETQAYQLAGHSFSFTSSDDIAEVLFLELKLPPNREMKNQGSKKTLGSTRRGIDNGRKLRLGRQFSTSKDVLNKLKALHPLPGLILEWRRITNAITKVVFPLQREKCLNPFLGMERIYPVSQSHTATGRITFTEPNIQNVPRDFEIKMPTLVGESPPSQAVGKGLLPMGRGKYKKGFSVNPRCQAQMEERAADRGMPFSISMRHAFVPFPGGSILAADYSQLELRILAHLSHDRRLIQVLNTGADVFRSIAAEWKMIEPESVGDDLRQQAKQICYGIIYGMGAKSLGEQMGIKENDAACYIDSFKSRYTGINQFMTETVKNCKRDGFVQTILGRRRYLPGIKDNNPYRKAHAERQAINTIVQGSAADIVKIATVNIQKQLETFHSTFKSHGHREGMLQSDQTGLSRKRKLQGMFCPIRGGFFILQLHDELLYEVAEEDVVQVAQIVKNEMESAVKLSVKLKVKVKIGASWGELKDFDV
Assay: Polθ Polymerase Domain Kinact/KI Assay (PicoGreen)
Assay type: biochemical
Conditions: 0.8 nM Polθ, 100 nM DNA substrate, kobs vs [I] fit for 2-step covalent inhibitor
Protocol: Polθ Polymerase Domain Kinact/KI Assay
A PicoGreen assay was used to measure the Kinact and KI values of covalent compounds that inhibit the activity of Polθ in vitro.
Human Polθ polymerase domain (aa1820-2590) was expressed in E. coli, purified, aliquoted and stored at −80° C. until required. Polθ substrate was generated from a 1.2:1 mix of DNA II Short to DNA II Long to give a final concentration of […] substrate in annealing buffer (20 mM Tris pH 7.5, 50 mM NaCl). The substrate was heated in […] aliquots to 95° C. in a heating block for 5 min before the heating block switched off, the reaction left to cool to rt and stored at −20° C. until required.
Assay measurements were performed with 1× buffer comprising 25 mM Tris pH 7.5, 12.5 mM NaCl, […], 5% (v/v) glycerol, 0.01% v/v Triton x-100, 0.1 mg/ml BSA, 1 mM DTT. Test compounds were prepared by dilution in 100% DMSO to give a 12 μM intermediate stock of each (100× final top concentration). 100 nL of 23×1:1.5-fold serial dilutions and a DMSO only control were dispensed using the Tecan dispenser into Greiner 384 well black low volume plates (product code 784076). DMSO concentration was maintained at 1% of the final assay volume by back filling with DMSO.
2× Working stock of substrate (200 nM of DNA substrate and […] dNTPs) and enzyme ([…] PolΘ) were made up in assay buffer. 5 μL/well of both enzyme and substrate 2× solutions were dispensed using a Tempest dispenser (Formulatrix) into assay plates that had been pre-dispensed with compound to give a final assay concentration of 100 nM DNA substrate, […] dNTPs and 0.8 nM Polθ. To stop the reaction, […] of a solution containing 25 mM Tris-HCl pH 7.5 and 20 mM EDTA was added at […] (t=0, 2.5, 5, 7.5, 10, 12.5, 15, 20, 25, 30, 35, 40, 45, 50, 55 and 60 min) using the Tempest's time delay function. The plates were covered during the time course to prevent evaporation. After completing the assay, 5 μL of detection reagent (25 mM Tris-HCl pH 7.5 and 2.5% (v/v) PicoGreen) was dispensed into the wells using a Tempest liquid handler (Formulatrix) and plates subsequently read on the CLARIOstar Plus (BMG Labtech) using the default optical settings for fluorescein and the auto gain/focus settings.
All data analysis was carried out using GraphPad Prism V.8 (GraphPad Software Inc, San Diego, CA) Time course data for each inhibitor concentration was fitted to equation 1 to determine kobs values.^1 Any time points where the control (DMSO alone) reaction was no longer linear were excluded from the analysis. 1) Evaluation of Enzyme Inhibitors in Drug Discovery (Ch9), R. A Copeland, Wiley, 2nd Edition 2013.
A secondary plot of kobs vs [I] is used to determine the Kinact and KI parameters (for a 2-step covalent inhibitor) by fitting to equation 2.^1

| SMILES | Kinact/Kl [M⁻¹ s⁻¹] |
| --- | --- |
| C=CC(=O)N1CCN(CCCN2C[C@H]3CC(=O)N(c4cc(C(F)(F)F)cc(C)n4)[C@@H]3C(=O)N(C)c3cccc(C)c32)CC1C(F)(F)F (mixture of isomers) [Example 265b, (3aR,11aS)-5-(3-((R/S)-4-acryloyl-3-(trifluoromethyl)piperazin-1-yl)propyl)-6,10-dimethyl-1-(6-methyl-4-(trifluoromethyl)pyridin-2-yl)-1,3a,4,5,10,11a-hexahydro-2H-benzo[b]pyrrolo[2,3-f][1,4]diazocine-2,11(3H)-dione] | 1.58e+06 |
| C=CC(=O)N1CCN(CCCN2C[C@H]3CC(=O)N(c4cc(C(F)(F)F)cc(C)n4)[C@@H]3C(=O)N(C)c3cccc(Cl)c32)CC1CC#N (mixture of isomers) [Example 267a, 2-((S/R)-1-acryloyl-4-(3-((3aR,11aS)-6-chloro-10-methyl-1-(6-methyl-4-(trifluoromethyl)pyridin-2-yl)-2,11-dioxo-1,2,3,3a,4,10,11,11a-octahydro-5H-benzo[b]pyrrolo[2,3-f][1,4]diazocin-5-yl)propyl)piperazin-2-yl)acetonitrile] | 1.24e+06 |
| C=CC(=O)N1CCN(CCCN2C[C@H]3CC(=O)N(c4cc(C(F)(F)F)cc(C)n4)[C@@H]3C(=O)N(C)c3cccc(Cl)c32)CC1CC#N (mixture of isomers) [Example 267b, 2-((R/S)-1-acryloyl-4-(3-((3aR,11aS)-6-chloro-10-methyl-1-(6-methyl-4-(trifluoromethyl)pyridin-2-yl)-2,11-dioxo-1,2,3,3a,4,10,11,11a-octahydro-5H-benzo[b]pyrrolo[2,3-f][1,4]diazocin-5-yl)propyl)piperazin-2-yl)acetonitrile] | 3.03e+06 |
| C=C(CN(C)C)C(=O)N[C@@H]1CCc2nc(CN3C[C@H]4CC(=O)N(c5cc(C(F)(F)F)cc(C)n5)[C@@H]4C(=O)N(C)c4cccc(C)c43)cn2C1 (mixture of isomers) [Example 329a, N-((R/S)-2-(((3aR, 11aS)-6,10-dimethyl-1-(6-methyl-4-(tri-fluoromethyl)pyridin-2-yl)-2,11-dioxo-1,2,3,3a,4,10,11,11a-octahydro-5H-benzo [b]pyrrolo[2,3-f][1,4]diazocin-5-yl)methyl)-5,6,7,8-tetrahydro-imidazo[1,2-a]pyridin-6-yl)-2-((dimethyl-amino)methyl)acryl-amide] | 1.73e+06 |
| C=CC(=O)N1CC[C@]12CCN(CCN1C[C@H]3CC(=O)N(c4cc(C(F)(F)F)cc(C)n4)[C@@H]3C(=O)N(C)c3cccc(F)c31)C2 (racemic) [Example 21a, (3aR,11aS)-5-(2-((S/R)-1-acryloyl-1,6-diazaspiro[3.4]octan-6-yl)ethyl)-6-fluoro-10-methyl-1-(6-methyl-4-(trifluoromethyl)pyridin-2-yl)-1,3a,4,5,10,11a-hexahydro-2H-benzo[b]pyrrolo[2,3-f][1,4]diazocine-2, 11(3H)-dione] | 54000 |
| C=CC(=O)N1CCN2CCN(CCN3C[C@H]4CC(=O)N(c5cc(C(F)(F)F)cc(C)n5)[C@@H]4C(=O)N(C)c4cccc(F)c43)C[C@H]2C1 (racemic) [Example 23a, (3aR,11aS)-5-(2-((S/R)-8-acryloyloctahydro-2H-pyrazino[1,2-a]pyrazin-2-yl)ethyl)-6-fluoro-10-methyl-1-(6-methyl-4-(trifluoromethyl)pyridin-2-yl)-1,3a,4,5,10,11a-hexahydro-2H-benzo[b]pyrrolo[2,3-f][1,4]diazocine-2, 11(3H)-dione] | 140000 |
| C=CC(=O)N1CC2(CN(CCN3C[C@H]4CC(=O)N(c5cc(C(F)(F)F)cc(C)n5)[C@@H]4C(=O)N(C)c4cccc(F)c43)C[C@H]3COCCN32)C1 (racemic) [Example 24b, (3aR,11aS)-5-(2-((S/R)-1-acryloyltetrahydro-1′H-spiro[azetidine-3,6′-pyrazino[2,1-c][1,4]oxazin]-8′(7′H)-yl)ethyl)-6-fluoro-10-methyl-1-(6-methyl-4-(trifluoromethyl)pyridin-2-yl)-1,3a,4,5,10,11a-hexahydro-2H-benzo[b]pyrrolo[2,3-f][1,4]diazocine-2, 11(3H)-dione] | 290000 |
| C=CC(=O)N1CC2(CN(CCN3C[C@H]4CC(=O)N(c5cc(C(F)(F)F)cc(C)n5)[C@@H]4C(=O)N(C)c4cccc(Cl)c43)C[C@H]3COCCN32)C1 (racemic) [Example 26b, (3aR,11aS)-5-(2-((S/R)-1-acryloyl-tetrahydro-1′H-spiro[azetidine-3,6′-pyrazino[2,1-c][1,4]oxazin]-8′(7′H)-yl)ethyl)-6-chloro-10-methyl-1-(6-methyl-4-(trifluoromethyl)pyridin-2-yl)-1,3a,4,5,10,11a-hexahydro-2H-benzo[b]pyrrolo[2,3-f][1,4]diazocine-2, 11(3H)-dione] | 1.29e+06 |
| C=CC(=O)N1CC2(C1)NCCN(CCN1C[C@H]3CC(=O)N(c4cc(C(F)(F)F)cc(C)n4)[C@@H]3C(=O)N(C)c3cccc(F)c31)[C@H]2C (racemic) [Example 34a, (3aR,11aS)-5-(2-((S/R)-2-acryloyl-9-methyl-2,5,8-triazaspiro[3.5]nonan-8-yl)ethyl)-6-fluoro-10-methyl-1-(6-methyl-4-(trifluoromethyl)pyridin-2-yl)-1,3a,4,5, 10,11a-hexahydro-2H-benzo[b]pyrrolo [2,3-f][1,4]diazocine-2,11(3H)-dione] | 1.2e+06 |
| C=CC(=O)N1CC(N(C)C[C@H](O)CN2C[C@H]3CC(=O)N(c4cc(C(F)(F)F)cc(C)n4)[C@@H]3C(=O)N(C)c3cccc(Cl)c32)C1 (racemic) [Example 68, (3aR,11aS)-5-((S/R)-3-((1-acryloylazetidin-3-yl)(methyl)amino)-2-hydroxypropyl)-6-chloro-10-methyl-1-(6-methyl-4-(trifluoromethyl)pyridin-2-yl)-1,3a,4,5,10,11a-hexahydro-2H-benzo[b]pyrrolo[2,3-f][1,4]diazocine-2,11(3H)-dione] | 660000 |
| C=CC(=O)N1CC2(CN(CCN3C[C@H]4CC(=O)N(c5cc(C(F)(F)F)cc(C)n5)[C@@H]4C(=O)N(C)c4cccc(Cl)c43)C[C@H]2C#N)C1 (racemic) [Example 117b, (S/R)-2-acryloyl-6-(2-((3aR,11aS)-6-chloro-10-methyl-1-(6-methyl-4-(trifluoromethyl)pyridin-2-yl)-2,11-dioxo-1,2,3,3a,4,10,11,11a-octahydro-5H-benzo[b]pyrrolo[2,3-f][1,4]diazocin-5-yl)ethyl)-2,6-diazaspiro[3.4]octane-8-carbonitrile] | 3.5e+06 |
